Data published in ChEMBL document CHEMBL1201862, “PubChem BioAssay data set” (2004).
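Values below derive from 48-hour exposures of cells grown in 96-well plates, with endpoints linearly interpolated between the two concentrations bracketing the appropriate inhibition level. Here, GI50 denotes the concentration required for 50% inhibition of growth.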 The source made the active and inactive calls. Cut-off read from the data, not from the text of the source: active = GI50 up to about 1.1 µM and inactive = higher.

How the values were obtained:
Assay in all cases: NCI tumour cell line growth inhibition, 48 h
LOX IMVI = test system: LOX IMVI
KM12 = test system: KM12
NCI-H522 = test system: NCI-H522
SF-295 = test system: SF-295
SF-539 = test system: SF-539
NCI-H460 = test system: NCI-H460
HCT-116 = test system: HCT-116
OVCAR-5 = test system: OVCAR-5
OVCAR-8 = test system: OVCAR-8
CAKI-1 = test system: CAKI-1
786-0 = test system: 786-0
A549 = test system: A549
HT-29 = test system: HT-29
ACHN = test system: ACHN
BT-549 = test system: BT-549
NCI-H226 = test system: NCI-H226
SK-OV-3 = test system: SK-OV-3
TK-10 = test system: TK-10
Malme-3M = test system: Malme-3M
HOP-62 = test system: HOP-62
SF-268 = test system: SF-268
PC-3 = test system: PC-3
M14 = test system: M14
HCT-15 = test system: HCT-15
COLO 205 = test system: COLO 205
DU-145 = test system: DU-145
MCF7 = test system: MCF7
IGROV-1 = test system: IGROV-1
MDA-MB-231 = test system: MDA-MB-231
HCC 2998 = test system: HCC 2998
Hs-578T = test system: Hs-578T
MDA-N = test system: MDA-N
EKVX = test system: EKVX
SK-MEL-5 = test system: SK-MEL-5
UACC-62 = test system: UACC-62
OVCAR-3 = test system: OVCAR-3
SNB-19 = test system: SNB-19
UACC-257 = test system: UACC-257
UO-31 = test system: UO-31
NCI/ADR-RES = test system: NCI/ADR-RES
NCI-H23 = test system: NCI-H23
RXF 393 = test system: RXF 393

Measured: GI50

O=P(O)(O)C(N=C(Nc1ccccc1)Nc1ccccc1)P(=O)(O)O
> 100 µM: HCT-15
inactive: LOX IMVI > 100 µM | KM12 > 100 µM | NCI-H522 > 100 µM | SF-295 > 100 µM | SF-539 > 100 µM | NCI-H460 > 100 µM | HCT-116 > 100 µM | OVCAR-5 > 100 µM | OVCAR-8 > 100 µM | CAKI-1 > 100 µM | 786-0 > 100 µM | A549 > 100 µM | HT-29 > 100 µM | ACHN > 100 µM | BT-549 > 100 µM | NCI-H226 > 100 µM | SK-OV-3 > 100 µM | TK-10 > 100 µM | Malme-3M > 100 µM | HOP-62 > 100 µM | SF-268 > 100 µM | PC-3 > 100 µM | M14 > 100 µM | COLO 205 > 100 µM | DU-145 > 100 µM | MCF7 > 100 µM | IGROV-1 > 100 µM | MDA-MB-231 > 100 µM | HCC 2998 > 100 µM | Hs-578T > 100 µM | MDA-N > 100 µM | EKVX > 100 µM | SK-MEL-5 > 100 µM | UACC-62 > 100 µM | OVCAR-3 > 100 µM | SNB-19 > 100 µM | UACC-257 > 100 µM | UO-31 > 100 µM | NCI/ADR-RES > 100 µM | NCI-H23 > 100 µM | RXF 393 > 100 µM
